“And” between values parts separate entries of the source, which are not always exact repeats. Identical values can stand only once. ± gives the expanded uncertainty stated by the source.
What was measured:
[1] = for surface tension liquid-gas: Pendant drop shape; for mass density: 101 kPa, Liquid, Vibrating tube method
[2] = xn = mol fraction of the nth substance listed; conditions: x1 = 1; for surface tension liquid-gas: Pendant drop shape; for mass density: 101 kPa, Liquid, Vibrating tube method

| Structure (SMILES) | surface tension liquid-gas ([1]; 298.15 K) | mass density ([1]; 298.15 K) | surface tension liquid-gas ([1]; 303.15 K) | mass density ([1]; 303.15 K) | surface tension liquid-gas ([1]; 308.15 K) | mass density ([1]; 308.15 K) | surface tension liquid-gas ([1]; 313.15 K) | mass density ([1]; 313.15 K) | surface tension liquid-gas ([2]; 298.15 K) | mass density ([2]; 298.15 K) | surface tension liquid-gas ([2]; 303.15 K) | mass density ([2]; 303.15 K) | surface tension liquid-gas ([2]; 308.15 K) | mass density ([2]; 308.15 K) | surface tension liquid-gas ([2]; 313.15 K) | mass density ([2]; 313.15 K) |
| --- | --- | --- | --- | --- | --- | --- | --- | --- | --- | --- | --- | --- | --- | --- | --- | --- |
| Cc1ccc(C)c(C)c1 [1,2,4-trimethylbenzene] | 29.17 ± 0.33 mN/m | 871.66 ± 0.19 kg/m3 | 28.67 ± 0.32 mN/m | 867.61 ± 0.19 kg/m3 | 28.17 ± 0.32 mN/m | 863.59 ± 0.19 kg/m3 | 27.67 ± 0.31 mN/m | 859.54 ± 0.19 kg/m3 |  |  |  |  |  |  |  |  |
| Cc1cc(C)cc(C)c1 [1,3,5-trimethylbenzene] | 28.09 ± 0.31 mN/m | 861.04 ± 0.18 kg/m3 | 27.67 ± 0.31 mN/m | 856.96 ± 0.18 kg/m3 | 27.24 ± 0.3 mN/m | 852.84 ± 0.18 kg/m3 | 26.82 ± 0.3 mN/m | 848.74 ± 0.18 kg/m3 |  |  |  |  |  |  |  |  |
| CCCCOC(C)=O [butyl ethanoate] | 24.89 ± 0.27 mN/m | 876.18 ± 0.14 kg/m3 | 24.35 ± 0.27 mN/m | 871.31 ± 0.14 kg/m3 | 23.82 ± 0.27 mN/m | 866.24 ± 0.14 kg/m3 | 23.28 ± 0.26 mN/m | 861.57 ± 0.14 kg/m3 |  |  |  |  |  |  |  |  |
| CCCCOC(C)=O [butyl ethanoate] + Cc1cc(C)cc(C)c1 |  |  |  |  |  |  |  |  | 24.89 ± 0.27 mN/m | 876.18 ± 0.14 kg/m3 | 24.35 ± 0.27 mN/m | 871.31 ± 0.14 kg/m3 | 23.82 ± 0.27 mN/m | 866.24 ± 0.14 kg/m3 | 23.28 ± 0.26 mN/m | 861.57 ± 0.14 kg/m3 |
| CCCCOC(C)=O [butyl ethanoate] + Cc1ccc(C)c(C)c1 |  |  |  |  |  |  |  |  | 24.89 ± 0.27 mN/m | 876.18 ± 0.14 kg/m3 | 24.35 ± 0.27 mN/m | 871.31 ± 0.14 kg/m3 | 23.82 ± 0.27 mN/m | 866.24 ± 0.14 kg/m3 | 23.28 ± 0.26 mN/m | 861.57 ± 0.14 kg/m3 |
| CCCOC(C)=O [propyl ethanoate] | 23.99 ± 0.27 mN/m | 882.64 ± 0.15 kg/m3 | 23.36 ± 0.26 mN/m and 23.35 ± 0.26 mN/m | 876.99 ± 0.15 kg/m3 | 22.73 ± 0.26 mN/m | 871.33 ± 0.15 kg/m3 | 22.1 ± 0.3 mN/m | 865.68 ± 0.15 kg/m3 |  |  |  |  |  |  |  |  |
| CCCOC(C)=O [propyl ethanoate] + Cc1cc(C)cc(C)c1 |  |  |  |  |  |  |  |  | 23.99 ± 0.27 mN/m | 882.64 ± 0.15 kg/m3 | 23.35 ± 0.26 mN/m | 876.99 ± 0.15 kg/m3 | 22.73 ± 0.26 mN/m | 871.33 ± 0.15 kg/m3 | 22.1 ± 0.25 mN/m | 865.68 ± 0.15 kg/m3 |
| CCCOC(C)=O [propyl ethanoate] + Cc1ccc(C)c(C)c1 |  |  |  |  |  |  |  |  | 23.99 ± 0.27 mN/m | 882.64 ± 0.15 kg/m3 | 23.36 ± 0.26 mN/m | 876.99 ± 0.15 kg/m3 | 22.73 ± 0.26 mN/m | 871.33 ± 0.15 kg/m3 | 22.1 ± 0.3 mN/m | 865.68 ± 0.15 kg/m3 |
